Experiments:
Format in all cases: cell-based
[1] = test system: Mycobacterium tuberculosis, strain H37Ra; experiment: Antimycobacterial activity against M. tuberculosis H37Ra (luminescence, dose-response); details: for IC50: Mycobacterium tuberculosis, 168 h, H37Ra lux, luminescence at day 7, top concentration 64 μM; for SI (selectivity index): calculated with the formula CC50/IC50 (MRC-5 cytotoxicity / H37Ra); for activity against Mtb H37Ra (in words): SAR discussion
Mycobacterium abscessus = experiment: microbe, parasite or virus in culture; details: Mycobacteroides abscessus, 72 h, read-out: IC50 against M. abscessus
[2] = In vitro cytotoxicity, resazurin assay; details: human, MRC-5 fibroblast cells (ATCC CCL-171), 3 days exposure
Description: In vitro cytotoxicity was evaluated on the MRC-5 Homo sapiens […] fibroblast cell line (ATCC CCL-171). The MRC-5 cells were cultured in 75 cm^2 sterile Dulbecco’s modified Eagle’s medium (DMEM) supplemented with 10% heat-inactivated fetal calf serum in a 5% CO2 atmosphere at 37 °C. When a semiconfluent layer of cells was formed, the cells were trypsinized, washed with sterile PBS, seeded into a transparent, flat-bottomed 96-well plate at a density of 4 × 10^4 cells per well and left for recovery at 37 °C, 5% CO2 for at least 24 h. For each compound, a 2-fold serial dilution was made in complete DMEM with final concentrations ranging from 128 μM to 0.5 μM. Subsequently, the MRC-5 cells were exposed to the compounds by adding 100 μL of the serial dilutions to the wells. Test plates were incubated for 3 days in an atmosphere of 5% CO2 at 37 °C. For the resazurin assay, the cells were washed 2 times with 200 μL PBS, and 100 μL resazurin working solution was added per well. Subsequently, the plates were incubated at 37 °C, 5% CO2 for 3 h. To monitor the viable cell number after compound exposure, each well was analyzed using a microplate fluorometer equipped with a 560 nm excitation/590 nm emission filter set.

Row | Structure (SMILES) | IC50 [1] [µM] | SI (selectivity index) [1] | other results
1 | COc1nc2ccc(Br)cc2cc1[C@@H](c1ccccc1)[C@@](O)(CCN(C)C)c1cccc2ccccc12 [Bedaquiline, reference compound] | 0.01 | – | –
2 | Cc1ccc(-c2c(NCc3ccccn3)c(=O)c2=O)cc1 [Compound 6a, 3-((Pyridin-2-ylmethyl)amino)-4-(p-tolyl)cyclobut-3-ene-1,2-dione] | 2.01 | > 31.8 | –
3 | O=c1c(NCc2ccccn2)c(-c2ccc(Br)cc2)c1=O [Compound 6b, 3-(4-Bromophenyl)-4-((pyridin-2-ylmethyl)amino)cyclobut-3-ene-1,2-dione] | 3.49 | > 18.3 | –
4 | O=c1c(NCc2ccccn2)c(-c2ccc(O)cc2)c1=O [Compound 6c, 3-(4-Hydroxyphenyl)-4-((pyridin-2-ylmethyl)amino)cyclobut-3-ene-1,2-dione] | 21.9 | > 2.9 | –
5 | O=c1c(NCc2ccccn2)c(-c2ccc(OC(F)(F)F)cc2)c1=O [Compound 6d, 3-((Pyridin-2-ylmethyl)amino)-4-(4-(trifluoromethoxy)phenyl)cyclobut-3-ene-1,2-dione] | 13.8 | > 4.6 | –
6 | CSc1ccc(-c2c(NCc3ccccn3)c(=O)c2=O)cc1 [Compound 6e, 3-(4-(Methylthio)phenyl)-4-((pyridin-2-ylmethyl)amino)cyclobut-3-ene-1,2-dione] | 4.56 | > 14.0 | –
7 | CC(C)(C)Oc1ccc(-c2c(NCc3ccccn3)c(=O)c2=O)cc1 [Compound 6f, 3-(4-(tert-Butoxy)phenyl)-4-((pyridin-2-ylmethyl)amino)cyclobut-3-ene-1,2-dione] | 4.67 | > 13.7 | –
8 | COCCOc1ccc(-c2c(NCc3ccccn3)c(=O)c2=O)cc1 [Compound 6g, 3-(4-(2-Methoxyethoxy)phenyl)-4-((pyridin-2-ylmethyl)amino)cyclobut-3-ene-1,2-dione] | 8.69 | > 7.4 | –
9 | O=c1c(NCc2ccccn2)c(-c2ccc(Oc3ccccc3)cc2)c1=O [Compound 6h, 3-(4-Phenoxyphenyl)-4-((pyridin-2-ylmethyl)amino)cyclobut-3-ene-1,2-dione] | > 64 | – | –
10 | O=c1c(NCc2ccccn2)c(-c2ccc(OCc3ccccc3)cc2)c1=O [Compound 6i, 3-(4-(Benzyloxy)phenyl)-4-((pyridin-2-ylmethyl)amino)cyclobut-3-ene-1,2-dione] | > 64 | – | –
11 | O=c1c(NCc2ccccn2)c(-c2ccc(OCc3ccc(F)cc3)cc2)c1=O [Compound 6j, 3-(4-((4-Fluorobenzyl)oxy)phenyl)-4-((pyridin-2-ylmethyl)amino)cyclobut-3-ene-1,2-dione] | > 64 | – | –
12 | O=c1c(NCc2ccccn2)c(-c2ccc(OCc3ccccc3)c(Cl)c2)c1=O [Compound 6k, 3-(4-(Benzyloxy)-3-chlorophenyl)-4-((pyridin-2-ylmethyl)amino)cyclobut-3-ene-1,2-dione] | > 64 | – | –
13 | COc1ccc(-c2c(NCc3ccccn3)c(=O)c2=O)cc1Cl [Compound 6l, 3-(3-Chloro-4-methoxyphenyl)-4-((pyridin-2-ylmethyl)amino)cyclobut-3-ene-1,2-dione] | 1.51 | > 42.4 | –
14 | O=c1c(NCc2ccccn2)c(-c2ccc(Cl)cc2C(F)(F)F)c1=O [Compound 6m, 3-(4-Chloro-2-(trifluoromethyl)phenyl)-4-((pyridin-2-ylmethyl)amino)cyclobut-3-ene-1,2-dione] | > 64 | – | –
15 | O=c1c(NCc2ccccn2)c(-c2ccc(F)c(F)c2)c1=O [Compound 6n, 3-(3,4-Difluorophenyl)-4-((pyridin-2-ylmethyl)amino)cyclobut-3-ene-1,2-dione] | 2.46 | > 26.0 | –
16 | COc1ccc(-c2c(NCc3ccccn3)c(=O)c2=O)c(F)c1F [Compound 6o, 3-(2,3-Difluoro-4-methoxyphenyl)-4-((pyridin-2-ylmethyl)amino)cyclobut-3-ene-1,2-dione] | > 64 | – | –
17 | CCCOc1ccc(-c2c(NCc3ccccn3)c(=O)c2=O)c(F)c1F [Compound 6p, 3-(2,3-Difluoro-4-propoxyphenyl)-4-((pyridin-2-ylmethyl)amino)cyclobut-3-ene-1,2-dione] | > 64 | – | activity against Mtb H37Ra (in words) [1]: completely inactive
18 | CCCCOc1ccc(-c2c(NCc3ccccn3)c(=O)c2=O)c(F)c1F [Compound 6q, 3-(4-Butoxy-2,3-difluorophenyl)-4-((pyridin-2-ylmethyl)amino)cyclobut-3-ene-1,2-dione] | > 64 | – | activity against Mtb H37Ra (in words) [1]: completely inactive
19 | CCOc1c(C)cc(-c2c(NCc3ccccn3)c(=O)c2=O)cc1C [Compound 6r, 3-(4-Ethoxy-3,5-dimethylphenyl)-4-((pyridin-2-ylmethyl)amino)cyclobut-3-ene-1,2-dione] | 13.5 | > 4.7 | –
20 | O=c1c(NCc2ccccn2)c(-c2cccc3ccccc23)c1=O [Compound 6s, 3-(Naphthalen-1-yl)-4-((pyridin-2-ylmethyl)amino)cyclobut-3-ene-1,2-dione] | > 64 | – | –
21 | COc1ccc(-c2c(NCc3ccccn3)c(=O)c2=O)c2ccccc12 [Compound 6t, 3-(4-Methoxynaphthalen-1-yl)-4-((pyridin-2-ylmethyl)amino)cyclobut-3-ene-1,2-dione] | > 64 | – | –
22 | O=c1c(NCc2ccccn2)c(-c2ccc3c(c2)OCO3)c1=O [Compound 6u, 3-(Benzo[d][1,3]dioxol-5-yl)-4-((pyridin-2-ylmethyl)amino)cyclobut-3-ene-1,2-dione] | 19.9 | > 3.2 | –
23 | O=c1c(NCc2ccccn2)c(-c2ccc3c(c2)OCCO3)c1=O [Compound 6v, 3-(2,3-Dihydrobenzo[b][1,4]dioxin-6-yl)-4-((pyridin-2-ylmethyl)amino)cyclobut-3-ene-1,2-dione] | 3.37 | > 19.0 | –
24 | CCOc1ccc2cc(-c3c(NCc4ccccn4)c(=O)c3=O)ccc2c1 [Compound 6w, 3-(6-Ethoxynaphthalen-2-yl)-4-((pyridin-2-ylmethyl)amino)cyclobut-3-ene-1,2-dione] | > 64 | – | activity against Mtb H37Ra (in words) [1]: completely inactive
25 | O=c1c(NCc2ccccn2)c(-c2ccoc2)c1=O [Compound 6x, 3-(Furan-3-yl)-4-((pyridin-2-ylmethyl)amino)cyclobut-3-ene-1,2-dione] | 29.1 | > 2.2 | –
26 | O=c1c(NCc2ccccn2)c(-c2ccsc2)c1=O [Compound 6y, 3-((Pyridin-2-ylmethyl)amino)-4-(thiophen-3-yl)cyclobut-3-ene-1,2-dione] | > 64 | – | –
27 | Cc1ccc(-c2c(NCc3ccccn3)c(=O)c2=O)s1 [Compound 6z, 3-(5-Methylthiophen-2-yl)-4-((pyridin-2-ylmethyl)amino)cyclobut-3-ene-1,2-dione] | 2.98 | > 21.5 | –
28 | COc1c(N2C[C@@H]3CCCN[C@@H]3C2)c(F)cc2c(=O)c(C(=O)O)cn(C3CC3)c12 [Moxifloxacin] | – | – | IC50 (Mycobacterium abscessus): 1.74 µM
29 | CC/C(=C(\c1ccccc1)c1ccc(OCCN(C)C)cc1)c1ccccc1 [Tamoxifen] | – | – | IC50 at 3 days [2]: 12.3 µM

From article PMC11325506 (ACS Omega, 2024)
